Where a name gives a salt, the structure may show the parent alone. Marks after values point to notes of the source that are not given here.
What was measured:
[1] = test system: ammonia water induced cough in ICR mice; experiment: Antitussive test, cough induced by ammonia water in mice; assay type: in vivo, mouse
Protocol: • Animals: male ICR mice; • Drugs and reagents: dextromethorphan hydrobromide, ammonia water, 0.2% CMC-Na, protein BD-11; • Apparatus: Compressed nebulizer (403T type), balance (XS105DU type).
Experiment grouping: • Solvent control group; • Dextromethorphan 15 mg/kg group; • Protein BD-11, 20 mg/kg group, 50 mg/kg group.
Dextromethorphan and different doses of protein BD-11 (administration volume 10 ml/kg) were given orally in groups, and the solvent control group was given the same volume of distilled water. One hour later, mice were put into a sealed box and atomized 10% ammonia water for 10 seconds, and then observed and recorded the incubation period of cough in mice and the number of coughs in 2 minutes.
Record the time point of oral administration, the time point of atomization experiment, the incubation period of mice cough and the number of coughs within 2 minutes, respectively. The incubation period of cough refers to the number of seconds from the start of the atomization of ammonia to the occurrence of cough. The performance of coughing in mice is based on contraction of their abdominal muscles (breast contraction) and opening their mouths at the same time. Calculate the mean and standard error of each group of data, and use TTEST to compare the model group with other groups, and P<0.05 is considered as a significant difference.
Give dextromethorphan (15 mg/kg) and different doses of protein BD-11 (20 mg/kg, 50 mg/kg) in advance, One hour later, the mice were put into a sealed box and atomized 10% ammonia water for 10 seconds, and then the mice were observed and recorded the incubation period of coughing and the number of coughs within 2 minutes.

[2] = test system: PLO-induced epilepsy in ICR mice; experiment: Pilocarpine (PLO) induced convulsive epilepsy in mice; assay type: in vivo, mouse; set-up: mortality rate: unit not given here; conditions: Diazepam 2 mg/kg
Protocol: • Animals: male ICR mice; • Drugs: Pilocarpine HCl (PLO, pilocarpine, pilocarpine hydrochloride), Diazepam (diazepam tablets), protein BD-11.
Experiment grouping: • Model group: • Diazepam 2 mg/kg group; • Protein BD-11, 50 mg/kg group, 200 mg/kg group.
The drug was administered once in the afternoon the day before modeling, PLO-225 mg/kg (modeling agent) was injected intraperitoneally 1 hour after the test drug was administered intragastrically on the day of modeling. And positive drug can be administered once 20 minutes before modeling. Observe for 30 minutes after PLO injection.
Observation indicators: ①Seizure situation: the time of seizures from Grade II to Grade IV; (2)the time to death.
(§1) Seizure grade: Refer to Racine grading standard: Grade 0: No response; Grade I: manifested as twitching of facial muscles or the corners of the mouth; Grade II: can nod; Grade III: twitching of one limb; Grade IV: rigidity or body twitching; Grade V: generalized epilepsy (generalized tonic seizures).
Count the number of Grade IV seizures and deaths in each group of mice in the experiment; Grade II, III and IV incubation period. […] Chi-square test was used for statistics of the number of cases. The mean value and standard error of the incubation period were calculated, and TTEST was used to compare the model group with other groups. P<0.05 was considered as a significant difference.

[3] = test system: PTZ-induced epilepsy in ICR mice; experiment: Pentylenetetrazole (PTZ) induced epilepsy in mice; assay type: in vivo, mouse; conditions: Retigabine 60 mg/kg
Protocol: • Animals: male ICR mice; • Medicines: Pentylenetetrazol (PTZ), Retigabine, Protein BD-11.
Experiment grouping: • Model group; • Retigabine 60 mg/kg group; • Protein BD-11, 50 mg/kg group, 200 mg/kg group;
The drug was administered once in the afternoon the day before modeling, On the day of modeling, PTZ-65 mg/kg (modeling agent) was injected intraperitoneal 1 hour after the test drug was administered intragastrically, and the positive drug can be administered once half an hour before modeling. Continue to observe for 15 minutes after injection of PTZ.
Observation index: ①Seizure situation: the time of seizures from Grade III to […]; ②Death situation
as §1
Count the cases of seizures and deaths in each group of mice in the experiment; Grade III and IV incubation period. The incubation period of mice that have not attacked to Grade IV is recorded as the maximum of 900 seconds. Chi-square test was used for statistics of the number of cases. Calculate the mean and standard error of the incubation period. Use TTEST to compare the model group with other groups, and P<0.05 is considered as a significant difference.

[4] = test system: acetic acid writhing in ICR mice; experiment: Acetic acid writhing test in ICR mice; assay type: in vivo, mouse
Protocol: • Animals: male ICR mice; • Drugs and reagents: aspirin, physiological saline, glacial acetic acid, protein BD-11.
Experiment grouping: • Model group; • Aspirin 300 mg/kg group; • Protein BD-11, 50 mg/kg group, 200 mg/kg group.
One day after the experimental animals adapt to the environment, Aspirin 300 mg/kg, protein BD-11 50 mg/kg, 200 mg/kg were given orally one hour in advance, and the administration volume was 10 ml/kg; Then, 0.6% acetic acid solution was injected intraperitoneally, and the incubation period (seconds) and frequency of writhing in the animal was observed within 15 minutes.
Calculate the mean and standard error of the data in each group. Compared with the model group by TTEST, P<0.05 was considered as statistically different.
One hour after oral administration of aspirin 300 mg/kg and different doses of protein BD-11 (50 mg/kg, 200 mg/kg), 0.6% acetic acid solution was intraperitoneally injected to observe the writhing incubation period and frequency of ICR mice.
0.6% acetic acid solution was injected into the abdominal cavity of mice, which caused deep and large area and long-term painful stimulation, causing the mice to writhe (the abdomen was contracted into an “S” shape, the trunk and hind legs were stretched, the buttocks were raised and creeping). The incubation time to start writhing and times of writhing in mice were used as the pain response indexs to determine whether the test sample had analgesic effect. […] Compared with the model group, P<0.05, which is statistically significant.

[5] = test system: lipopolysaccharide (LPS) induced fever in SD rats; experiment: Lipopolysaccharide (LPS) induced fever model in SD rats; assay type: in vivo, rat; conditions: aspirin 300 mg/kg oral
Protocol: • Animals: 230-260 grams of male SD rats; • Drugs: lipopolysaccharide (LPS, SIGMAL-2880), aspirin (SIGMA A2093), protein BD-11; • Instruments: electronic balance (SARTORIUS BP121S type), electronic clinical thermometer (CITIZEN CT-513W type).
Experiment grouping: • Normal control group; • Model group: lipopolysaccharide fever model; • Positive control group: Aspirin 300 mg/kg group; • Protein BD-11, 10 mg/kg group, 50 mg/kg group. Method: the method of intraperitoneal injection of Lipopolysaccharide to replicate rat fever model.
(§2) Preparation of experimental animals: After the experimental animals adapt to the experimental environment (temperature 22° C.±2° C., relative humidity 50%±2%) for 1 day. Pre-adaptation to measure rectal temperature at 8:00 and 15:00, rats were fasted and water was taken freely 12 h before experiment, and let the animal to empty its feces before measuring the rectal temperature. Apply petroleum jelly to the electronic thermometer probe before each temperature measurement. Insert the rat rectum 2 cm (can be marked at 2 cm to ensure that the depth of each insertion is consistent), and record the body temperature after the reading is stable.
Intraperitoneal injection of lipopolysaccharide to replicate rat fever model: The body temperature of the rats was measured before modeling. Qualified rats with a body temperature of 36.2-37.3° C. were selected and randomly divided into groups with 8 rats in each group. After oral administration of aspirin and different doses of protein BD-11, lipopolysaccharide (20 µg/kg, 2 ml/kg) was injected intraperitoneally immediately, and the normal control group was injected intraperitoneally with an equal volume of normal saline. The body temperatures of the rats were monitored after 2 hours for a total of 8 hours.
(§3) According to the body temperature measured at each time point on the day of the experiment, calculate the mean, standard deviation and standard error of the body temperature of each group of rats. The data of each group was compared with TTEST, and P<0.05 was considered as a significant difference.
Immediately after oral administration of aspirin (300 mg/kg), protein BD-11 (10 mg/kg, 50 mg/kg), intraperitoneal injection of 20 µg/kg lipopolysaccharide was performed to establish a model. The animal body temperature was monitored at 2 hours, 4 hours, 6 hours, and 8 hours after modeling.

[6] = test system: yeast-induced fever model in SD rats; experiment: Yeast-induced fever model in SD rats; assay type: in vivo, rat; conditions: aspirin 300 mg/kg oral
Protocol: • Animals: 230-260 grams of male SD rats;; • Drugs: yeast (OXOID LP0021), aspirin (SIGMA A2093), protein BD-11; • Instruments: electronic balance (SARTORIUS BP121S type), electronic clinical thermometer (CITIZEN CT-513W type).
Experiment grouping: • Normal control group; • Model group: yeast fever model; • Positive control group: Aspirin 300 mg/kg group; • Protein BD-11, 10 mg/kg group, 50 mg/kg group.
as §2
Subcutaneous injection of dry yeast to replicate rat fever model: The body temperature of the rats was measured before modeling. Qualified rats with a body temperature of 36.2-37.3° C. were selected and randomly divided into groups with 8 rats in each group. After oral administration of aspirin and different doses of protein BD-11, 20% yeast suspension (10 ml/kg) was injected subcutaneously immediately, and the normal control group was injected intraperitoneally with an equal volume of normal saline. The body temperatures of the rats were monitored after 2 hours for a total of 8 hours.
as §3
Immediately after oral administration of aspirin (300 mg/kg), protein BD-11 (10 mg/kg, 50 mg/kg), subcutaneous injection of 20% yeast was performed to establish a model. The animal body temperature was monitored at 2 hours, 4 hours, 6 hours, and 8 hours after modeling.

[7] = Aspirin 300 mg/kg, P<0.05 vs model group
[8] = 2, 4, 6 and 8 hours after modeling, P<0.05 vs model group

`COc1ccc2c(c1)[C@]13CCCC[C@@H]1[C@H](C2)N(C)CC3` [Dextromethorphan, dextromethorphan hydrobromide, reference compound] was tested, and the “Incubation period (cough)” value ([1]; Dextromethorphan 15 mg/kg oral, 10% ammonia water 10 s, X±SEM, n=9) was 38.4 ± 4.5 s, the Number of coughs ([1]; Dextromethorphan 15 mg/kg oral, within 2 minutes, X±SEM, n=9) was 34.0±2.9 and the “Incubation period and number of coughs vs solvent control group” value ([1]; dextromethorphan 15 mg/kg, P<0.05) was “significant improvement”.
In the case of `CN1C(=O)CN=C(c2ccccc2)c2cc(Cl)ccc21` [Diazepam, reference compound], the Cases of deaths ([2]; PLO 225 mg/kg i.p., 10 mice) is reported as 0, the “Grade IV seizure rate” value ([2]; PLO 225 mg/kg i.p., 10 mice) is reported as 0** and the mortality rate ([2]; PLO 225 mg/kg i.p., 10 mice) is reported as 0. The “Cases of Grade IV” value ([2]; PLO 225 mg/kg i.p., 10 mice, 30 min observation) was 0**, the “Grade II seizure incubation period” value ([2]; PLO model, mean±SEM) was 109 ± 8 s and the “Grade III seizure incubation period” value ([2]; PLO model, mean±SEM) was 182 ± 14 s. The “Grade IV seizure incubation period” value ([2]; PLO model, mean±SEM, no Grade IV recorded as maximum 1800 s) was 1800 ± 0 s.
In the case of `CCOC(=O)Nc1ccc(NCc2ccc(F)cc2)cc1N` [Retigabine, reference compound], the Cases of deaths ([3]; PTZ 65 mg/kg i.p., 10 mice) is reported as 0, the “Grade IV seizure rate” value ([3]; PTZ 65 mg/kg i.p., 10 mice) is reported as 20%** and the mortality rate ([3]; PTZ 65 mg/kg i.p., 10 mice) is reported as 0. For the same compound, the “Cases of Grade IV” value ([3]; PTZ 65 mg/kg i.p., 10 mice, 15 min observation) was 2**, the “Grade III seizure incubation period” value ([3]; PTZ model, mean±SEM) was 83 ± 7 s and the “Grade IV seizure incubation period” value ([3]; PTZ model, mean±SEM, no Grade IV recorded as maximum 900 s) was 745 ± 103 s.
For `CC(=O)Oc1ccccc1C(=O)O` [aspirin, reference compound], the “Effect on incubation period of writhing” value [4, 7] was “significantly delay”, the “Effect on times of writhing” value [4, 7] was “reduce the times of writhing” and the Writhing incubation period ([4]; aspirin 300 mg/kg oral, 0.6% acetic acid i.p., n=13) was 290.3 ± 37.0 s. The Frequency of writhing ([4]; aspirin 300 mg/kg oral, within 15 minutes, n=13) was 15.2 ± 2.9 times, the “Effect on the increase in body temperature of model rats” value [5, 8] was “can effectively inhibit the increase in body temperature” and the “Body temperature 2 hours after modeling” value ([5]; 2 h after LPS 20 µg/kg i.p., n=8) was 36.8 ± 0.1 °C. For the same compound, the “Body temperature 4 hours after modeling” value ([5]; 4 h after LPS 20 µg/kg i.p., n=8) was 36.9### °C, the “Body temperature 6 hours after modeling” value ([5]; 6 h after LPS 20 µg/kg i.p., n=8) was 36.8## °C and the “Body temperature 8 hours after modeling” value ([5]; 8 h after LPS 20 µg/kg i.p., n=8) was 36.9±0.1 °C. The “Effect on the increase in body temperature of model rats” value [6, 8] was “can effectively inhibit the increase in body temperature”, the “Body temperature 2 hours after modeling” value ([6]; 2 h after 20% yeast s.c., n=8) was 37.0 ±0.1 °C and the “Body temperature 4 hours after modeling” value ([6]; 4 h after 20% yeast s.c., n=8) was 37.0±0.1 °C. For the same compound, the “Body temperature 6 hours after modeling” value ([6]; 6 h after 20% yeast s.c., n=8) was 37.0±0.1 °C and the “Body temperature 8 hours after modeling” value ([6]; 8 h after 20% yeast s.c., n=8) was 37.0±0.1 °C.

— patent publication US20230183305A1, “KERATIN BD-11, PREPARATION METHOD THEREFOR AND PHARMACEUTICAL COMPOSITION AND USE THEREOF” (INSTITUTE OF MATERIA MEDICA, CHINESE ACADEMY OF MEDICAL …, priority 2019, published 2023)
